From US9156850B2, “Enediyne compounds, conjugates thereof, and uses and methods therefor” (Bristol-Myers Squibb Company, priority 2012, dated 2015)
Where two headings read alike, the source gives them in different places.

Key:
Format in all cases: cell-based
HL-60 leukemia cells = assay: Antiproliferative activity, ATP assay, HL-60; details: Homo sapiens
Procedure: (§1) The antiproliferative activity of compounds of this invention or their conjugates was assayed as follows. Human tumor cell lines were obtained from the American Type Culture Collection (ATCC), P.O. Box 1549, Manassas, Va. 20108, USA, and cultured according to instruction from the ATCC. Cells were seeded at 1.0×10^3 or 1.0×10^4 cells/well in 96-well plates for 3 h for ATP assays or ^3H thymidine assays, respectively. 1:3 serial dilutions of free (unconjugated) compounds or their conjugates were added to the wells. Plates were allowed to incubate for 24 to 72 h. The ^3H thymidine plates were pulsed with 1.0 μCi of ^3H-thymidine per well for the last 24 hours of the total incubation period, harvested, and read on a Top Count Scintillation Counter (Packard Instruments, Meriden, Conn.). ATP levels in the ATP plates were measured using the CELLTITER-GLO® Luminescent Cell Viability kit following the manufacturer's manual and read on a GLOMAX® 20/20 luminometer (both from Promega, Madison, Wis., USA). The EC50 values—the concentration at which an agent inhibits or reduces cell proliferation by 50%—were determined using PRISM™ software, version 4.0 (GraphPad Software, La Jolla, Calif., USA).
FIG. 11a is a plot of the antiproliferative activity of compound (IIa) against HL-60 leukemia cells, as measured by the ATP assay using a 72 h incubation period, compared against three reference compounds: doxorubicin (adriamycin), uncialamycin, and Compound A, which is a DNA alkylating agent having the following structure: […]

[1] = test system: doxorubicin-resistant ovarian cancer cell line (Adr); assay: Antiproliferative activity, ATP assay, Adr; details: Homo sapiens
Procedure: as §1
FIG. 11b is an analogous plot of antiproliferative activity against a doxorubicin-resistant ovarian cancer cell line (Adr), also using the ATP assay and a 72 h incubation period.

A2780 (ovarian) = assay: Antiproliferative activity, ATP method, A2780; details: Homo sapiens
Procedure: as §1
(§2) The assay method was the ATP method. The cancer cell lines tested against were A2780 (ovarian), A549 (lung), CCRF-CEM (acute lymphoblastic leukemia), COLO205 (colon), DU4475 (breast), H2087 (lung, non-small cell), H661 (lung, large cell), HCT116 (colon), LNCaP (prostate), LS174T (colon), MDA MB468 (breast), MDA MB231 (breast), and SET2 (leukemia). The antiproliferative effects are reported as IC50's, i.e., the concentration of toxin that produces a 50% inhibitory effect.

A549 (lung) = assay: Antiproliferative activity, ATP method, A549; details: Homo sapiens
Procedure: The antiproliferative activity of compounds of this invention or their conjugates was assayed as follows. […] Cells were seeded at 1.0×10^3 or 1.0×10^4 cells/well in 96-well plates for 3 h for ATP assays or ^3H thymidine assays, respectively. 1:3 serial dilutions of free (unconjugated) compounds or their conjugates were added to the wells. Plates were allowed to incubate for 24 to 72 h. The ^3H thymidine plates were pulsed with 1.0 μCi of ^3H-thymidine per well for the last 24 hours of the total incubation period, harvested, and read on a Top Count Scintillation Counter (Packard Instruments, Meriden, Conn.). […] The EC50 values—the concentration at which an agent inhibits or reduces cell proliferation by 50%—were determined using PRISM™ software, version 4.0 (GraphPad Software, La Jolla, Calif., USA).

[2] = test system: CCRF-CEM (acute lymphoblastic leukemia); assay: Antiproliferative activity, ATP method, CCRF-CEM; details: Homo sapiens
Procedure: as §1, §2

COLO205 (colon) = assay: Antiproliferative activity, ATP method, COLO205; details: Homo sapiens, COLO 205
Procedure: as §1, §2

DU4475 (breast) = assay: Antiproliferative activity, ATP method, DU4475; details: Homo sapiens, DU-4475
Procedure: as §1, §2

[3] = test system: H2087 (lung, non-small cell); assay: Antiproliferative activity, ATP method, H2087; details: Homo sapiens, NCI-H2087
Procedure: as §1, §2

H661 (lung, large cell) = assay: Antiproliferative activity, ATP method, H661; details: Homo sapiens, NCI-H661
Procedure: as §1, §2

HCT116 (colon) = assay: Antiproliferative activity, ATP method, HCT116; details: Homo sapiens, HCT-116
Procedure: as §1, §2

LNCaP (prostate) = assay: Antiproliferative activity, ATP method, LNCaP; details: Homo sapiens
Procedure: as §1, §2

LS174T (colon) = assay: Antiproliferative activity, ATP method, LS174T; details: Homo sapiens
Procedure: as §1, §2

MDA MB468 (breast) = assay: Antiproliferative activity, ATP method, MDA MB468; details: Homo sapiens, MDA-MB-468
Procedure: as §1, §2

MDA MB231 (breast) = assay: Antiproliferative activity, ATP method, MDA MB231; details: Homo sapiens, MDA-MB-231
Procedure: as §1, §2

SET2 (leukemia) = assay: Antiproliferative activity, ATP method, SET2; details: Homo sapiens, SET-2
Procedure: as §1, §2

786-O renal cancer cells = assay: Antiproliferative activity, ATP assay, 786-O; details: Homo sapiens
Procedure: as §1
The ATP assay was used, with a 72 h incubation period.

H226 lung cancer cells = assay: Antiproliferative activity, ATP assay, H226; details: Homo sapiens
Procedure: as §1
FIG. 12b is a similar antiproliferative plot, but against H226 lung cancer cells. The ATP assay was used, with a 72 h incubation period.
FIG. 13c is another plot of the antiproliferative activity of conjugates 2H5-(IVf) and 6A4-(IVf) against H226 cells, but measured using the ATP assay, with a 72 h incubation period.

[4] = HL-60 leukemia cells, ATP assay, 72 h incubation, read-out: EC50
[5] = Adr cells (doxorubicin-resistant ovarian), ATP assay, 72 h incubation, read-out: EC50
[6] = A2790 cell line, ATP method, read-out: IC50
[7] = A549 cell line, ATP method, read-out: IC50
[8] = CCRF-CEM cell line, ATP method, read-out: IC50
[9] = COLO205 cell line, ATP method, read-out: IC50
[10] = DU4475 cell line, ATP method, read-out: IC50
[11] = H2087 cell line, ATP method, read-out: IC50
[12] = H661 cell line, ATP method, read-out: IC50
[13] = HCT116 cell line, ATP method, read-out: IC50
[14] = LNCaP cell line, ATP method, read-out: IC50
[15] = LS174T cell line, ATP method, read-out: IC50
[16] = MDA MB468 cell line, ATP method, read-out: IC50
[17] = MCD MB231 cell line, ATP method, read-out: IC50
[18] = SET2 cell line, ATP method, read-out: IC50

C[C@@H](O)[C@@]12O[C@]13c1cc(O)c4c(c1N[C@H]2C#C/C=C\C#C[C@H]3O)C(=O)c1ccc(N)cc1C4=O [Compound (IIa), 8-aminouncialamycin]
EC50 (HL-60 leukemia cells; HL-60, 72 h): 0.00404 nM | EC50 ([1]; 72 h): 0.0612 nM | IC50 (A2780 (ovarian)): 0.003 nM | IC50 (A549 (lung); A549): 0.076 nM | IC50 ([2]; CCRF-CEM): 0.014 nM | IC50 (COLO205 (colon)): 0.01 nM | IC50 (DU4475 (breast)): 0.002 nM | IC50 [3]: 0.037 nM | IC50 (H661 (lung, large cell)): 0.053 nM | IC50 (HCT116 (colon)): 0.007 nM | IC50 (LNCaP (prostate); LNCaP): 0.001 nM | IC50 (LS174T (colon); LS174T): 0.002 nM | IC50 (MDA MB468 (breast)): 0.012 nM | IC50 (MDA MB231 (breast)): 0.085 nM | IC50 (SET2 (leukemia)): 0.008 nM | EC50 (786-O renal cancer cells; 786-0, 72 h): 0.116 nM | EC50 (H226 lung cancer cells; NCI-H226, 72 h): 1 nM

C[C@@H](O)[C@@]12O[C@]13c1cc(O)c4c(c1N[C@H]2C#C/C=C\C#C[C@H]3O)C(=O)c1ccc(NCCN)cc1C4=O [Compound (IIc)]
EC50 (786-O renal cancer cells; 786-0, 72 h): 1.27 nM | EC50 (H226 lung cancer cells; NCI-H226, 72 h): 0.986 nM

C[C@@H](O)[C@@]12O[C@]13c1cc(O)c4c(c1N[C@H]2C#C/C=C\C#C[C@H]3O)C(=O)c1ccc(NC(=O)c2ccc(N)cc2)cc1C4=O [Compound (IId)]
EC50 (786-O renal cancer cells; 786-0, 72 h): 0.058 nM | EC50 (H226 lung cancer cells; NCI-H226, 72 h): 0.873 nM

CNc1ccc2c(c1)C(=O)c1c(O)cc3c(c1C2=O)N[C@H]1C#C/C=C\C#C[C@@H](O)[C@@]32O[C@@]12[C@@H](C)O [Compound (IIe), 8-methylaminouncialamycin]
EC50 (786-O renal cancer cells; 786-0, 72 h): 1.72 nM | EC50 (H226 lung cancer cells; NCI-H226, 72 h): 17.4 nM

Nc1ccc(C(=O)Nc2ccc3[nH]c(C(=O)N4C[C@@H](CCl)c5c4cc(O)c4ccccc54)cc3c2)cc1 [Compound A]
EC50 (HL-60 leukemia cells; [4]): 0.00187 nM | EC50 [1, 5]: 0.143 nM | IC50 (A2780 (ovarian); [6]): 0.004 nM | IC50 (A549 (lung); [7]): 0.04 nM | IC50 [2, 8]: 0.019 nM | IC50 (COLO205 (colon); [9]): 0.019 nM | IC50 (DU4475 (breast); [10]): 0.001 nM | IC50 [3, 11]: 0.019 nM | IC50 (H661 (lung, large cell); [12]): 0.02 nM | IC50 (HCT116 (colon); [13]): 0.002 nM | IC50 (LNCaP (prostate); [14]): 0.01 nM | IC50 (LS174T (colon); [15]): 0.015 nM | IC50 (MDA MB468 (breast); [16]): 0.009 nM | IC50 (MDA MB231 (breast); [17]): 0.068 nM | IC50 (SET2 (leukemia); [18]): 0.002 nM

COc1cccc2c1C(=O)c1c(O)c3c(c(O)c1C2=O)C[C@@](O)(C(=O)CO)C[C@@H]3O[C@H]1C[C@H](N)[C@H](O)[C@H](C)O1 [Doxorubicin, doxorubicin]
EC50 (HL-60 leukemia cells; [4]): 5.98 nM | EC50 [1, 5]: 3850 nM | IC50 (A2780 (ovarian); [6]): 11.2 nM | IC50 (A549 (lung); [7]): 138 nM | IC50 [2, 8]: 19.4 nM | IC50 (COLO205 (colon); [9]): 19.7 nM | IC50 (DU4475 (breast); [10]): 2.9 nM | IC50 [3, 11]: 54.4 nM | IC50 (H661 (lung, large cell); [12]): 26.6 nM | IC50 (HCT116 (colon); [13]): 23.4 nM | IC50 (LNCaP (prostate); [14]): 5.5 nM | IC50 (LS174T (colon); [15]): 11.1 nM | IC50 (MDA MB468 (breast); [16]): 29 nM | IC50 (MDA MB231 (breast); [17]): 90.5 nM | IC50 (SET2 (leukemia); [18]): 67.6 nM | EC50 (786-O renal cancer cells; 786-0, 786-O cells, ATP assay, 72 h incubation, read-out: EC50): 92.3 nM | EC50 (H226 lung cancer cells; NCI-H226, H226 cells, ATP assay, 72 h incubation, free compounds, read-out: EC50): 141 nM

C[C@@H](O)[C@@]12O[C@]13c1cc(O)c4c(c1N[C@H]2C#C/C=C\C#C[C@H]3O)C(=O)c1ccccc1C4=O [Uncialamycin, uncialamycin]
EC50 (HL-60 leukemia cells; HL-60, 72 h): 0.012 nM | EC50 ([1]; 72 h): 0.085 nM
